{"source": "patent US8962673B2", "about": "“Use of melatonin for treating and/or preventing mucositis” (Universidad de Granada, priority 2011, dated 2015)", "key": {"glutathione": {"tested_on": "glutathione", "assay": "Glutathione levels (GSH, GSSG, GSSG/GSH) in tongue mitochondria of irradiated rats", "format": "in vivo, rat", "conditions": "i.p. 45 mg a day for 21 days, compared with 3% gel topical", "description": "(§1) For topical administration in the oral cavity, the composition used was a hydrogel (gel) that comprised 1%, 3% or 5% melatonin (1, 3 or 5 grams of melatonin in 100 ml of the final volume of the composition, respectively) and in which 20% polyethylene and polypropylene copolymers were used as a gelling substance. Pluronic® F127 (poloxamer) was used as the polyethylene and polypropylene copolymers. 0.3% sodium benzoate was used as a preservative. 0.5% sweet orange essence was used. All the components used were acquired from FAGRON IBERICA, S.A.U., reference numbers: melatonin, 33457-27; Pluronic® F127, 33353-SP; sodium benzoate, 31360-12; orange essence, 30620-08. The chemical structure of melatonin is shown below: […]\n(§2) […]"}, "[1]": {"tested_on": "glutathione peroxidase (GPx)", "assay": "Activity and expression of glutathione peroxidase in rat tongue mitochondria", "format": "in vivo", "conditions": "irradiated rats", "description": "as §1, §2"}, "[2]": {"tested_on": "glutathione reductase (GRd)", "assay": "Activity and expression of glutathione reductase in rat tongue mitochondria", "format": "in vivo", "conditions": "irradiated rats; i.p. 45 mg a day for 21 days", "description": "as §1, §2"}, "[3]": {"tested_on": "mucositis caused by radiotherapy", "assay": "Macroscopic appearance of rat tongue / mucositis after irradiation", "format": "in vivo", "conditions": "irradiated rats", "description": "For topical administration in the oral cavity, the composition used was a hydrogel (gel) that comprised 1%, 3% or 5% melatonin (1, 3 or 5 grams of melatonin in 100 ml of the final volume of the composition, respectively) and in which 20% polyethylene and polypropylene copolymers were used as a gelling substance. Pluronic® F127 (poloxamer) was used as the polyethylene and polypropylene copolymers. 0.3% sodium benzoate was used as a preservative. 0.5% sweet orange essence was used. All the components used were acquired from FAGRON IBERICA, S.A.U., reference numbers: melatonin, 33457-27; Pluronic® F127, 33353-SP; sodium benzoate, 31360-12; orange essence, 30620-08. The chemical structure of melatonin is shown below:\n(§3) The animals used in experiments were rats weighing 280 g, and they were subjected to ionizing radiations under controlled conditions in the Experimental Radiology Unit at the Biomedical Research Center in the University of Granada. The animals were subjected to full exposure of 50 grays (Gy). The irradiation dose used each day was 10 Gy administered at 100.75 cGy/min, 210 kilovolts (kV) and 12 milliamperes (mA), and placing the animal 40 cm away from the radiation source.\nThe different formulations were applied to the animals as follows. A topical application was applied in the oral cavity before irradiation, another one after, and successive applications were applied every 8 hours for 21 days. […] The formulations used in the animals used in experiments were as follows: Pluronic F-127 gel with 1%, 3% or 5% melatonin (1, 3 or 5 grams of melatonin/100 ml gel, respectively), applied three times a day topically in the oral cavity at a volume of 500 μl/each time, giving a total of 1.5 ml/day. Topical application in the oral cavity means that the animals ingest the gel applied in the buccal cavity.\nThe experiments were also conducted by administering to the animals the same melatonin concentration as that used with the 3% w/v hydrogel, but by intraperitoneal route, to see if plasma melatonin could reduce mucositis or if it is necessary to apply said molecule by topical route. For the parenteral route, an isotonic solution that comprised 70% v/v (volume/volume) of isotonic saline solution and 30% v/v of propylene glycol, measured in relation to the total volume of the solution, was used. A daily dose of 45 mg of melatonin was injected for 21 days. The animals were sacrificed 21 days after starting irradiation, like the animals treated with melatonin gel applied by topical route in the oral cavity."}, "[4]": {"tested_on": "mitochondrial respiratory chain complexes CI, CIII, CIV and CV", "assay": "Expression of mitochondrial respiratory chain complexes in rat tongue by Western blot", "format": "in vivo", "conditions": "irradiated rats; i.p. 45 mg a day for 21 days", "source_text": "as §3\n(§4) The different formulations were applied to the animals as follows. A topical application was applied in the oral cavity before irradiation, another one after, and successive applications were applied every 8 hours for 21 days. […]\nas §2"}, "[5]": {"assay": "Melatonin levels in rat tongue mitochondria", "format": "in vivo", "conditions": "irradiated rats; parenteral (i.p.) 45 mg a day", "source_text": "as §3, §4, §2"}, "[6]": {"tested_on": "fibrosis and angiogenesis between the muscle fibers of the tongue", "assay": "Histology of rat tongue (hematoxylin-eosin, Masson Goldner's trichrome)", "format": "in vivo", "conditions": "irradiated rats treated with melatonin (both treatments: 3% gel topical and parenteral) versus irradiated animals", "source_text": "as §3, §4, §2"}, "mitochondria": {"tested_on": "mitochondria", "assay": "Electron microscopy of rat tongue mitochondria", "format": "in vivo", "conditions": "irradiated rats; parenteral route", "source_text": "as §3, §4, §2"}, "[7]": {"conditions": "in vivo; cited from earlier work"}}, "note": "Entries after “also recorded” stand apart in the source; their conditions may differ.", "data": [{"compound": "COc1ccc2[nH]cc(CCNC(C)=O)c2c1", "note": "[melatonin, N-acetyl-5-methoxytryptamine]", "values": [{"measurement": "GSSG/GSH ratio in tongue mitochondria", "setting": "glutathione", "result": "higher GSSG/GSH ratio"}, {"measurement": "restoring GSH and reducing GSSG in tongue mitochondria", "setting": "glutathione", "result": "lower efficacy"}, {"measurement": "activity and expression of GPx", "setting": "[1]; 3% w/v gel topical in the oral cavity, 45 mg a day", "result": "partially counteract the effect of irradiation"}, {"measurement": "activity and expression of GPx", "setting": "[1]; i.p. 45 mg a day for 21 days", "result": "partially counteract the effect of irradiation"}, {"measurement": "activity and expression of GRd", "setting": "[2]", "result": "unable to restore the enzyme"}, {"measurement": "minimum effective dose for treating mucositis, daily dose", "setting": "[3]; 3% gel applied three times a day, 500 μl in each application", "result": 45, "unit": "mg"}, {"measurement": "macroscopic tongue lesions (morphological appearance of the tongue)", "setting": "[3]; 3% w/v gel, topical application in the oral cavity", "result": "completely normalizes the morphological appearance of the tongue"}, {"measurement": "minimum effective dose for treating mucositis, melatonin concentration in the gel", "setting": "[3]; gel applied three times a day, 500 μl in each application", "result": 3, "unit": "%"}, {"measurement": "mucositis caused by radiotherapy (macroscopic tongue lesions)", "setting": "[3]; gel topical in the oral cavity, three times a day, 21 days", "result": "complete prevention of mucositis"}, {"measurement": "macroscopic tongue lesions / mucositis", "setting": "[3]; parenteral (i.p.) 45 mg a day for 21 days", "result": "unable to restore tongue lesions after irradiation; also recorded: no benefit whatsoever"}, {"measurement": "expression of complex V or ATP synthase", "setting": "[4]", "result": "completely unable to restore the expression of complex V"}, {"measurement": "melatonin levels in the tongue", "setting": "[5]", "result": "not restored"}, {"measurement": "fibrosis and angiogenesis between the muscle fibers of the tongue", "setting": "[6]", "result": "decrease in fibrosis and in angiogenesis"}, {"measurement": "mitochondrial damage by electron microscopy (broken mitochondria)", "setting": "mitochondria", "result": "broken mitochondria are observed"}, {"measurement": "half-life", "setting": "[7]", "result": 30, "unit": "min"}]}]}
